Results on one compound are retold here after patent US11390603B2, “Crystalline forms of a biphenyl compound” (THERAVANCE BIOPHARMA R&D IP, LLC, priority 2005, dated 2022).

As usually defined, the Ki is a dissociation constant, usually derived from enzyme kinetics or from competition with a known ligand.

One assay deals with T1, hM3 receptor (Homo sapiens, UniProt P20309).
T1 construct: expressed in transfected cells
Put plainly: Blockade of agonist-mediated calcium release via FLIPR. Format: cell-based. Conditions: CHO cells stably expressing the hM3 receptor; this or a similar assay. The text has this: Muscarinic receptor subtypes (M1, M3 and M5 receptors), which couple to Gq proteins, activate the phospholipase C (PLC) pathway upon agonist binding to the receptor. As a result, activated PLC hydrolyzes phosphatyl inositol diphosphate (PIP2) to diacylglycerol (DAG) and […] (IP3), which in turn generates calcium release from intracellular stores, i.e., endoplasmic and sarcoplasmic reticulum. The FLIPR (Molecular Devices, Sunnyvale, Calif.) assay capitalizes on this increase in intracellular calcium by using a calcium sensitive dye (Fluo-4AM, Molecular Probes, Eugene, Oreg.) that fluoresces when free calcium binds. This fluorescence event is measured in real time by the FLIPR, which detects the change in fluorescence from a monolayer of cells cloned with human M1 and M3, and chimpanzee M5 receptors. Antagonist potency can be determined by the ability of antagonists to inhibit agonist-mediated increases in intracellular calcium. […]
To determine antagonist potency, the dose-dependent stimulation of intracellular Ca^2+ release for oxotremorine is first determined so that antagonist potency can later be measured against oxotremorine stimulation at an EC90 concentration. […]
The change of fluorescence is expressed as maximum fluorescence minus baseline fluorescence for each well. […]

The target of assay [1] is T2, M3 muscarinic receptor subtype (Homo sapiens, UniProt P20309).
T2 construct: expressed in transfected cells
T2 sequence (P20309 whole entry): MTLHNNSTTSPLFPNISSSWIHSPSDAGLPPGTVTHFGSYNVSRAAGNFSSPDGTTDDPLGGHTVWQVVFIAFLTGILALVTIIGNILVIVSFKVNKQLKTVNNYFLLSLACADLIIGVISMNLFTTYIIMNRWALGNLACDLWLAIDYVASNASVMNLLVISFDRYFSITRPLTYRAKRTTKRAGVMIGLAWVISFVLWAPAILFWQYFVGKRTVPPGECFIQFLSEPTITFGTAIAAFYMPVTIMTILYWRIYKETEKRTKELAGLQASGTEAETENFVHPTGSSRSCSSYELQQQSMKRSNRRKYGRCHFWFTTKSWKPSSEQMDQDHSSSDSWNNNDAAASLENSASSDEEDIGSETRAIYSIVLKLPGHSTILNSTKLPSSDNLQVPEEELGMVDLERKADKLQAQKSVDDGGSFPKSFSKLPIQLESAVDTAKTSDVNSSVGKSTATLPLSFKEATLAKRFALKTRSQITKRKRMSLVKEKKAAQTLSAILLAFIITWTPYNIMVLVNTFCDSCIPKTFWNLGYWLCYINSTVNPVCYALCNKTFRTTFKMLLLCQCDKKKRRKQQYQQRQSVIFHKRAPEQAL
The assay is described as follows: Radioligand binding assay ([3H]-NMS displacement). As to conditions: CHO cell membranes, [3H]-NMS at 1 nM; tested in this or a similar assay. How it is done:
CHO cell lines stably expressing cloned human hM1, hM2, hM3 and hM4 muscarinic receptor subtypes, respectively, were grown to near confluency in medium consisting of HAM's F-12 supplemented with 10% FBS and 250 μg/mL Geneticin. The cells were grown in a 5% CO2, 37° C. incubator and lifted with 2 mM EDTA in dPBS. Cells were collected by 5 minute centrifugation at 650×g, and cell pellets were either stored frozen at −80° C. or membranes were prepared immediately. For membrane preparation, cell pellets were resuspended in lysis buffer and homogenized with a Polytron PT-2100 tissue disrupter (Kinematica AG; 20 seconds×2 bursts). Crude membranes were centrifuged at 40,000×g for 15 minutes at 4° C. […] The protein concentration of the membrane suspension was determined by the method described in Lowry, O. et al., Journal of Biochemistry 193:265 (1951). […]
Radioligand binding assays were performed in 96-well microtiter plates in a total assay volume of 100 μL. […] Filter plates were rinsed three times with wash buffer (10 mM HEPES) to remove unbound radioactivity. […] The plates were then counted in a PerkinElmer Topcount liquid scintillation counter (PerkinElmer Inc., Wellesley, Mass.). Binding data were analyzed by nonlinear regression analysis with the GraphPad Prism Software package (GraphPad Software, Inc., San Diego, Calif.) using the one-site competition model. […]

Structures are written as SMILES.

T1 sequence (P20309 whole entry): as above

As for `CN(CCN1CCC(OC(=O)Nc2ccccc2-c2ccccc2)CC1)C(=O)c1ccc(CN2CCC(C(N)=O)CC2)cc1` [compound of formula I, biphenyl-2-ylcarbamic acid 1-(2-{[4-(4-carbamoylpiperidin-1-ylmethyl)benzoyl]methylamino}ethyl)piperidin-4-yl ester], the Ki (at hM3 receptor; in assay [1]) was under 5 nM in each case.
